Test results taken from patent EP0168515A2, “Process for the preparation of steffimycinones, analogues of steffimycinones so obtained, intermediates useful in the synthesis of those compounds, use of these compounds as antibacterials acid for the synthesis of antitumor products” (LABORATOIRES HOECHST S.A., priority 1984, dated 1986).

Key:
[1] = test system: Bacillus pumilus (CNCM 7618); experiment: Bactericidal action: growth inhibition test; format: cell-based; settings: 100 µg/ml in 60% Dimethylsulfoxyd / 40% destilliertem Wasser, after 24 Stunden
Method: (§1) Das Produkt der Formel II wurde an folgenden Mikroorganismen geprüft: • Bacillus pumilus (CNCM 7618) und • Bacillus subtilis (ATCC 6533)
(§2) Es wurde auf eine Konzentration von 100 µg/ml in einem Gemisch aus 60% Dimethylsulfoxyd und 40% destilliertem Wasser solubilisiert.

[2] = test system: Bacillus subtilis (ATCC 6533); experiment: Bactericidal action: growth inhibition test; format: cell-based; settings: 100 µg/ml in 60% Dimethylsulfoxyd / 40% destilliertem Wasser, after 24 Stunden
Method: as §1, §2

Which results are given for `COc1cc(O)c2c(c1)C(=O)c1cc3c(c(O)c1C2=O)C(O)CC(C)(O)C3=O` (single isomer, unassigned; (+)) [Verbindung II, (+)-8-Desmethoxy-steffimycinon]?
Wachstum [1]: völlig gehemmt; Wachstum [2]: völlig gehemmt
